Among the data in ChEMBL document CHEMBL1155460, “Prediction of acetylcholinesterase inhibitors and characterization of correlative molecular descriptors by machine learning methods” (Eur J Med Chem, 2010) are IC50 values, retold here.

pIC50: −log10 of the molar value.

Chain of Acetylcholinesterase (P22303 whole entry): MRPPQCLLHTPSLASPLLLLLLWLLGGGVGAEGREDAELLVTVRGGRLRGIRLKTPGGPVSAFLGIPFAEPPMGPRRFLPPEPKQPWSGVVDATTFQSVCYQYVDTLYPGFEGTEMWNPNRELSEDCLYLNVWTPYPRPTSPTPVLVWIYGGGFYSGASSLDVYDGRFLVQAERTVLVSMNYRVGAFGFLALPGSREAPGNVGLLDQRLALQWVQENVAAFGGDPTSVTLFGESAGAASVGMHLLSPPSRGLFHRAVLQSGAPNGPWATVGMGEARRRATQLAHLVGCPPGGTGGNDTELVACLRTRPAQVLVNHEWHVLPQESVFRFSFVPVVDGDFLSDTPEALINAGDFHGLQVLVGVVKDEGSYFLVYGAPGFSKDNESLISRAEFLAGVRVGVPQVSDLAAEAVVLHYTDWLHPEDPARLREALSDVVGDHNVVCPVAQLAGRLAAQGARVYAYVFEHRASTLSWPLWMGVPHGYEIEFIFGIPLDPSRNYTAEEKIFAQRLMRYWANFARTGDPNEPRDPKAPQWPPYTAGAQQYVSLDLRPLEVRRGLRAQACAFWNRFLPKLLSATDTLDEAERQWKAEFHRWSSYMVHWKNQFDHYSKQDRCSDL

This assay addresses Acetylcholinesterase (Homo sapiens, UniProt P22303).
The term pIC50 denotes the IC50 on a negative log10 scale, so that one unit is a factor of ten. For the compound `CC(=O)N(C)CCC1CCN(Cc2ccccc2)CC1`, the negative-log IC50 (pIC50) is 6.18.

Regarding `COc1ccc2c(c1)CCCc1c-2nc2ccccc2c1N`, the negative logarithm of the IC50 (pIC50) was 4.16.

`O=C(CCC1CCN(Cc2ccccc2)CC1)c1ccc2c(c1)N(c1ccccc1)CCC2` showed a negative-log IC50 (pIC50) of 5.83.

`CCCCCCCNC(=O)Oc1ccc2c(c1)[C@]1(C)CCN(Cc3ccccc3)[C@@H]1C2` showed a pIC50 of 6.30. This pIC50 lies 0.47 log units higher than the previous one.

Compound `O=C1c2ccc([N+](=O)[O-])cc2C(=O)N1CC1CCN(Cc2ccccc2)CC1` showed a pIC50 of 5.52.

As to `CC(=O)N(CCC1CCN(Cc2ccccc2)CC1)c1ccc(F)cc1`, the pIC50 was 6.69. This pIC50 lies 1.17 log units higher than the previous one.

Turning to `Cc1cc(-c2ccc(Cl)cc2)nnc1NCCN1CCOCC1`, the pIC50 is 4.47.

Compound `CCN1CC[C@@]2(C)c3cc(OC(=O)NC)ccc3C[C@@H]12` had a pIC50 of 7.42.

In turn, `CN(CCOCCNC(=S)NC(=O)c1ccc2c(c1)C(=O)c1ccccc1C2=O)Cc1ccccc1` gave a pIC50 of 8.22.

The compound `O=C(c1ccc(F)cc1)N(CCC1CCN(Cc2ccccc2)CC1)c1ccccc1` gave a pIC50 of 7.74.

As to `CNC(=O)Oc1cccc(CN(C)CCCCCCCOc2ccc3c(c2)CC/C(=C/c2cc(O)c(O)c(O)c2)C3=O)c1`, the pIC50 is 8.31.

As to `O=C(NCCCCCCCNc1c2c(nc3cc(Cl)ccc13)CCCC2)c1c[nH]c2ccccc12`, the pIC50 is 7.44.

In turn, `CN(CCOCCNC(=S)NC(=O)c1ccc2c(c1)C(=O)c1ccccc1-2)Cc1ccccc1` showed a pIC50 of 7.52.

Turning to `CC(=O)N(CCC1CCN(Cc2ccccc2)CC1)c1ccncc1`, the pIC50 was 6.97.

`Cc1cc(C2(c3cc(C)c(O)c(C)c3)CCCCC2)cc(C)c1O` showed a pIC50 of 4.82.

The compound `c1ccc2c(NCCCCCCCCCNc3ccncc3)c3c(nc2c1)CCCC3` gave a pIC50 of 7.08.

`Nc1c2c(nc3ccccc13)-c1ccccc1C2` showed a pIC50 of 6.46.

Take `O=C1CCCCN1CCC1CCN(Cc2ccccc2)CC1`: the pIC50 was 6.57.

The compound `CCCCNC(=O)Oc1ccc2c(c1)C1CCN(CC)C1C2` (stereo not given) gave a pIC50 of 5.97.

Take `c1ccc(-c2ccc(NCCCCN3CCc4ccccc4C3)nn2)cc1`: the pIC50 is 4.82. This pIC50 lies 1.15 log units lower than the previous one.

`CCN1CCCCc2ccc(C(=O)CCC3CCN(Cc4ccccc4)CC3)cc21` gave a pIC50 of 6.42. This pIC50 lies 1.60 log units higher than the previous one.

The compound `O=C1c2ccccc2CC1CC1CCN(c2ccccc2)CC1` (stereo not given) showed a negative-log IC50 (pIC50) of 6.82.

Turning to `CN(C)CCCCCCCNc1c2c(nc3ccccc13)CCCC2`, the pIC50 was 7.28. This pIC50 is 0.46 log units higher than that of the compound before.

On to `c1ccc2c(NCCCCCCCCCCNc3ccncc3)c3c(nc2c1)CCCC3`, for which the negative-log IC50 (pIC50) is 6.75.

In the case of `c1ccc(CN2CCC(CCN=c3[nH]nc(-c4ccccc4)c4ccccc34)CC2)cc1`, the pIC50 was 6.36.

In turn, `O=C(/C=C/c1c[nH]c2ccccc12)NCCCCCCNc1c2c(nc3cc(Cl)ccc13)CCCC2` showed a pIC50 of 7.74.

Turning to `Nc1c2c(nc3ccccc13)-c1ccccc1CCC2`, the pIC50 was 3.78.

Take `CCCCCN1CCc2cc(C(=O)CCC3CCN(Cc4ccccc4)CC3)ccc21`: the pIC50 is 7.33.

Regarding `O=c1c2ccccc2ncn1CCC1CCN(Cc2ccccc2)CC1`, the pIC50 is 5.92.

In the case of `O=C1c2ccccc2CCCC1CC1CCN(c2ccccc2)CC1` (stereo not given), the pIC50 is 4.82.

`Fc1ccc2c(NCCCCCCNc3c4c(nc5cc(F)ccc35)CCCC4)c3c(nc2c1)CCCC3` had a pIC50 of 9.05.

The compound `O=C(CCCc1c[nH]c2ccccc12)NCCCCCCNc1c2c(nc3cc(Cl)ccc13)CCCC2` gave a pIC50 of 9.30.

`CC12CCC(c3c1nc1ccccc1c3N)C2(C)C` (stereo not given) had a pIC50 of 3.96. This pIC50 lies 5.34 log units lower than the previous one.

`c1ccc2c(NCCCCCCCCCNc3c4c(nc5ccccc35)CCCC4)ccnc2c1` showed a pIC50 of 7.42.

Compound `CN(CCCCCNc1ccc(-c2ccccc2)nn1)Cc1ccccc1` gave a pIC50 of 6.13. This pIC50 lies 1.29 log units lower than the previous one.

In the case of `O=C(CCc1c[nH]c2ccccc12)NCCCCCCCCCCNc1c2c(nc3cc(Cl)ccc13)CCCC2`, the pIC50 is 7.66.

In turn, `CCCCCCNC(=O)Oc1ccc2c(c1)[C@]1(C)CCN(CC)[C@@H]1C2` gave a pIC50 of 7.35.

As for `COc1ccc2c(c1)C(=O)N(CCC1CCN(Cc3ccccc3)CC1)C2=O`, the pIC50 was 8.10.

Compound `CN(CCCNc1ccc(-c2ccccc2)nn1)Cc1ccccc1` showed a pIC50 of 4.89.

`O=[N+]([O-])c1ccc2c(Nc3ccccc3)c3c(nc2c1)CCCC3` had a pIC50 of 5.32.

`CNC(=O)Oc1cccc(-c2cn3c(NC(C)=O)cccc3[n+]2C)c1` had a pIC50 of 5.35.

With `NCCCCCCCCCCNc1c2c(nc3ccccc13)CCCC2`, the pIC50 was 6.83. This pIC50 is 1.48 log units higher than that of the compound before.

As for `c1ccc2c(NCCCCCCNc3c4c(nc5ccccc35)CCCC4)c3c(nc2c1)CCCC3`, the pIC50 is 8.85.

Compound `CCN1CCc2cc(C(=O)CCC3CCN(Cc4ccccc4)CC3)ccc21` gave a pIC50 of 7.96.

`CC(=O)Nc1cccc2n1cc(-c1ccc(OC(=O)N(C)C)cc1)[n+]2C` showed a negative logarithm of the IC50 (pIC50) of 6.15. This pIC50 is 1.81 log units lower than that of the compound before.

The compound `CN(CCCNC(=O)CCc1c[nH]c2ccccc12)CCCNc1c2c(nc3ccccc13)CCCC2` had a pIC50 of 6.83. Against the preceding compound, the pIC50 is 0.68 log units higher.

Compound `O=C(CCC1CCN(Cc2ccccc2)CC1)c1ccc2c(c1)CCCCN2` gave a pIC50 of 6.90.

In turn, `O=C(CC1S/C(=N/c2ccc(C3CCCCC3)cc2)NC1=O)Nc1ccc(OC(F)(F)F)cc1` (stereo not given) had a pIC50 of 5.54. Against the preceding compound, the pIC50 is 1.36 log units lower.

`O=C(NCCCCCCCCNc1c2c(nc3cc(Cl)ccc13)CCCC2)c1c[nH]c2ccccc12` showed a pIC50 of 7.34.

`CN(C)CCCCCCCCCCCCNc1c2c(nc3ccccc13)CCCC2` showed a pIC50 of 6.58.

Take `Cc1ccc2c(Nc3ccccc3)c3c(nc2c1)CCCC3`: the pIC50 was 6.12. This pIC50 lies 0.46 log units lower than the previous one.

`CC(=O)N(C)c1cccc2n1cc(-c1ccc(OC(=O)N(C)C)cc1)[n+]2C` gave a pIC50 of 4.61.

The compound `Fc1ccc2c(NCCCCCCCCNc3c4c(nc5cc(F)ccc35)CCCC4)c3c(nc2c1)CCCC3` gave a pIC50 of 9.15.

`COC(=O)Nc1ccc2n(c1)cc(-c1ccccc1)[n+]2C` showed a pIC50 of 4.30.

For the compound `CN(C)C(=O)Oc1cccc(-c2cn3c(Cl)cccc3[n+]2C)c1`, the negative logarithm of the IC50 (pIC50) is 4.90.

For the compound `CCCCCCCNC(=O)Oc1ccc2c(c1)[C@]1(C)CCN(CCC)[C@@H]1C2`, the pIC50 is 7.03.

In the case of `COc1ccccc1CN(C)CCCCCC(=O)N(C)CCCCCCCCN(C)C(=O)CCCCCN(C)Cc1ccccc1OC` [CAPROCTAMINE], the pIC50 was 6.98.

Compound `O=C(CCC1CCN(Cc2ccccc2)CC1)c1ccc2c(c1)NCCCCC2` had a pIC50 of 6.90.

Regarding `O=C(c1ccncc1)N(CCC1CCN(Cc2ccccc2)CC1)c1ccccc1`, the pIC50 was 7.19. Compared with the last compound, the pIC50 is 0.29 log units higher.

For the compound `CN(C)C(=O)Oc1ccc(-c2cn3c(Cl)cccc3[n+]2C)cc1`, the pIC50 was 4.90.

Compound `CC(=O)N(CCC1CCN(Cc2ccccc2)CC1)c1cccc(F)c1` had a pIC50 of 7.19.

Take `O=C1c2ccccc2CN1CCC1CCN(Cc2ccccc2)CC1`: the pIC50 was 7.01. This pIC50 and that of the compound before are within 0.2 log units of each other.

Compound `Cc1cc(-c2ccccc2)nnc1NCCN1CCCCC1` showed a pIC50 of 5.27.

In turn, `CN(CCOCCCNC(=S)NC(=O)c1ccccc1)Cc1ccccc1` had a pIC50 of 5.96. This pIC50 lies 0.69 log units higher than the previous one.

Compound `c1ccc(CN2CCC(CCN3CCc4ccccc4C3)CC2)cc1` showed a pIC50 of 5.80.

For `Nc1c2c(nc3ccccc13)-c1ccccc1NCC2`, the pIC50 is 4.16.

Take `O=C(CCC1CCN(Cc2cccc(Cl)c2)CC1)c1ccc2c(c1)NCCCC2`: the pIC50 is 6.48.

`c1cnc2nc3c(c(NCCCCCCCNc4c5c(nc6ncccc46)CCCC5)c2c1)CCCC3` showed a pIC50 of 8.89.

With `O=C(Nc1ccc2c(c1)C(=O)N(CCC1CCN(Cc3ccccc3)CC1)C2=O)c1ccccc1`, the pIC50 was 8.92.

As for `Cc1cccc2n1cc(-c1ccc(OC(=O)N(C)C)cc1)[n+]2C`, the pIC50 is 5.89.
